Measurements from US20250304537A1 (Repare Therapeutics Inc., priority 2022, published 2025).
pIC50: −log10 of the molar value. Like-named read-outs stand apart in the source and are kept apart here.

Tested on: PKMYT1 (CDK1 pThr14) in FUOV1 cells
Test: PKMYT1 cell-based activity assay, CDK1 pThr14 AlphaLISA in FUOV1 cells
Settings: read-out: FUOV-1 CDK1 pThr14 IC50
Experimental: To determine compound IC50 (PKMYT1 cell-based activity assay, CDK1 pThr14 AlphaLISA), FUOV1 cells were plated into a 96-well TC-treated culture plate at 50000 cells/well in a final volume of 100 μL of media. The plates were then allowed to equilibrate in a biological safety cabinet for 30 minutes before being placed in a humidified incubator at 37 C and 5% CO2 overnight. The next day, 2 μL of PKMYT1 inhibitors or DMSO were diluted in 400 μL of warmed culture media in a 96-well block using a Biomek FX liquid handler. Compounds were mixed in media and then 25 μL was dispensed into each well of the 96-well cell plate. Plates were centrifuged at 300 g for 10 seconds and then placed in the incubator for 2 hours. After the 2-hour incubation with compound, media was removed via aspiration using a multichannel pipette. 30 μL of 1× AlphaLISA lysis buffer (Perkin Elmer) supplemented with protease and phosphatase inhibitors as well as 1 mM PMSF, was added to each well. Plates were rotated at 500 g for 20 minutes to facilitate lysis. Plates were then sealed with aluminum foil and frozen at −80° C. for at least 1 hour. Lysates were thawed at 37° C. for 10 minutes, then 10 μL of each lysate was transferred in duplicate to a white 384-well assay plate. Antibody mixture was prepared in 1× AlphaLISA assay buffer (Perkin Elmer) containing antibodies (5 nM final concentration for rabbit pThr14-CDK1 from Abcam #ab58509 and mouse total CDK1 from ThermoFisher Scientific #33-1800). 5 μL of antibody mixture was added to each well of the assay plate. The assay plate was sealed and stored at 4° C. overnight. The next day, AlphaLISA bead mixture (Perkin Elmer) was prepared in 1× AlphaLISA assay buffer. Anti-rabbit IgG Acceptor (Perkin Elmer #AL104C) and anti-mouse IgG Donor beads (Perkin Elmer #AS104D) were prepared to a concentration of 80 μg/ml in assay buffer. 5 μL of bead mixture was added to each well of the assay plate (20 μg/ml final concentration for each bead). The plate was protected from light and incubated for 2 hours at room temperature. After a 2-hour incubation with beads, the plate was read using the Perkin Elmer EnVision Multimode plate reader with excitation at 680 nm and emission at 615 nm.

Cc1ccc2[nH]ncc2c1-c1nc(-c2ccc(C#N)nc2NC2CCOCC2)nc(C(N)=O)c1N [Compound 810]
pIC50 (2 h, 2 hours with compound): 7.02

Cc1ccc2[nH]ncc2c1-c1nc(-c2ccccc2-c2ccn[nH]2)nc(C(N)=O)c1N [Compound 816]
pIC50 (2 h, 2 hours with compound): < 5.00

Cc1ccc2[nH]ncc2c1-c1nc(-c2cccnc2N[C@@H]2CCOC[C@H]2F)nc(C(N)=O)c1N [Compound 647]
pIC50 (2 h, 2 h compound incubation): 7.55

Cc1ccc2[nH]ncc2c1-c1cc2c(oc3ccc(OCc4cccnc4)nc32)c(C(N)=O)c1N [Compound 569, 7-amino-8-(5-methyl-1H-indazol-4-yl)-2-(pyridin-3-ylmethoxy)benzofuro[3,2-b]pyridine-6-carboxamide]
pIC50 (2 h, 2 h compound incubation): 6.15

Cc1c(F)cc2[nH]ncc2c1-c1nc(-c2ccc(C(F)F)nc2Nc2ncccc2F)nc(C(N)=O)c1N [Compound 855]
pIC50 (2 h, 2 hours with compound): 7.89

Cc1ccc2[nH]ncc2c1-c1nc(-c2cccnc2Nc2cccc(C#N)c2)nc(C(N)=O)c1N [Compound 630]
pIC50 (2 h, 2 h compound incubation): 6.82

Cc1ccc2[nH]ncc2c1-c1nc(-c2cccnc2NCC(F)(F)F)nc(C(N)=O)c1N [Compound 518, 5-amino-6-(5-methyl-1H-indazol-4-yl)-2-(2-((2,2,2-trifluoroethyl)amino)pyridin-3-yl)pyrimidine-4-carboxamide]
pIC50 (2 h, 2 h compound incubation): 7.74

Cc1ccc2[nH]ncc2c1-c1cc2c(oc3ccc(NC4CCOCC4)nc32)c(C(N)=O)c1N [Compound 575]
pIC50 (2 h, 2 h compound incubation): 7.62

Cc1ccc2[nH]ncc2c1-c1nc(-c2ccc(C#N)nc2Nc2ncccc2F)nc(C(N)=O)c1N [Compound 746]
pIC50 (2 h, 2 h compound incubation): 7.96

Cc1ccc2[nH]ncc2c1-c1nc(-c2ccc(F)cc2Nc2ncncc2F)nc(C(N)=O)c1N [Compound 526]
pIC50 (2 h, 2 h compound incubation): 8.40

Cc1ccc2[nH]ncc2c1-c1nc(-c2cc(F)cnc2NC2CC2)nc(C(N)=O)c1N [Compound 680]
pIC50 (2 h, 2 h compound incubation): 7.85

Cc1ccc2[nH]ncc2c1-c1nc(-c2cc(F)cnc2NC2CC(O)C2(C)C)nc(C(N)=O)c1N (stereo not drawn) [Compound 823]
pIC50 (2 h, 2 hours with compound): 7.44

Cc1ccc2[nH]ncc2c1-c1nc(-c2ccc(F)cc2NC2CS(=O)(=O)C2)nc(C(N)=O)c1N [Compound 811, 5-amino-2-(2-((1,1-dioxidothietan-3-yl)amino)-4-fluorophenyl)-6-(5-methyl-1H-indazol-4-yl)pyrimidine-4-carboxamide]
pIC50 (2 h, 2 hours with compound): 7.52

Cc1ccc(-c2nc(C(N)=O)c(N)c(-c3c(F)ccc4[nH]ncc34)n2)c(Nc2ncccc2F)n1 [Compound 952]
pIC50 (2 h, 2 hours with compound): 9.00

Cc1ccc2[nH]ncc2c1-c1nc(-c2cc(F)ccc2Nc2cccnn2)nc(C(N)=O)c1N [Compound 489]
pIC50 (2 h, 2 h compound incubation): 7.66

Cc1ccc2[nH]ncc2c1-c1cc2c(oc3ccc(OCC(F)(F)F)nc32)c(C(N)=O)c1N [Compound 560]
pIC50 (2 h, 2 h compound incubation): 5.15

Cc1ccc(-c2nc(C(N)=O)c(N)c(-c3c(F)ccc4[nH]ncc34)n2)c(Nc2ncccn2)n1 [Compound 953]
pIC50 (2 h, 2 hours with compound): 6.82

Cc1ccc2[nH]ncc2c1-c1nc(-c2ccc(Cl)nc2Nc2nccnc2C)nc(C(N)=O)c1N [Compound 780]
pIC50 (2 h, 2 h compound incubation): 7.60

Cc1ccc2[nH]ncc2c1-c1nc(-c2ccc(F)cc2Nc2nccnc2C#N)nc(C(N)=O)c1N [Compound 701]
pIC50 (2 h, 2 h compound incubation): 7.60

Cc1ccc2[nH]ncc2c1-c1nc(-c2cccnc2NCC2CCOCC2)nc(C(N)=O)c1N [Compound 593]
pIC50 (2 h, 2 h compound incubation): 6.53

Cc1ccc2[nH]ncc2c1-c1nc(-c2ccc(Cl)nc2NC2CC(F)(F)C2)nc(C(N)=O)c1N [Compound 802]
pIC50 (2 h, 2 hours with compound): 6.13

NC(=O)c1nc(-c2cccnc2NC2CC2)nc(-c2c(F)ccc3[nH]ncc23)c1N [Compound 933]
pIC50 (2 h, 2 hours with compound): 7.19

[2H]C([2H])([2H])c1ccc(-c2nc(C(N)=O)c(N)c(-c3c(C([2H])([2H])[2H])ccc4[nH]ncc34)n2)c(Nc2ncccn2)n1 [Compound 960]
pIC50 (2 h, 2 hours with compound): 7.40

Cc1ccc2[nH]ncc2c1-c1cc(-c2ccnc(OCC3(C#N)CC3)n2)nc(C(N)=O)c1N [Compound 324]
pIC50 (2 h, 2 h incubation): 6.52

Cc1ccc2[nH]ncc2c1-c1nc(-c2cc(F)cnc2N[C@H]2CC[C@@](C)(O)CC2)nc(C(N)=O)c1N [Compound 723]
pIC50 (2 h, 2 h compound incubation): 7.66

Cc1ccc2[nH]ncc2c1-c1nc(-c2cccnc2Nc2ccc(F)nc2F)nc(C(N)=O)c1N [Compound 641]
pIC50 (2 h, 2 h compound incubation): 6.41

Cc1ccc2[nH]ncc2c1-c1nc(-c2cccnc2N[C@H]2[C@@H]3COC[C@@H]32)nc(C(N)=O)c1N [Compound 545]
pIC50 (2 h, 2 h compound incubation): 7.37

Cc1ccc2[nH]ncc2c1-c1nc(-c2cccnc2NC2CCN(C)C(=O)C2)nc(C(N)=O)c1N (stereo not drawn) [Compound 549]
pIC50 (2 h, 2 h compound incubation): 5.88

Cc1ccc2[nH]ncc2c1-c1nc(-c2cccnc2Nc2nc(C(F)F)ccc2F)nc(C(N)=O)c1N [Compound 842]
pIC50 (2 h, 2 hours with compound): 8.52

Cc1ccc2[nH]ncc2c1-c1nc(-c2cc(F)c(F)cc2NC2CCCC2(C)C)nc(C(N)=O)c1N (stereo not drawn) [Compound 488]
pIC50 (2 h, 2 h compound incubation): 6.06

Cc1ccc2[nH]ncc2c1-c1nc(-c2cc(F)cnc2N[C@H]2CC[C@@H](O)CC2)nc(C(N)=O)c1N [Compound 828]
pIC50 (2 h, 2 hours with compound): 7.52

COc1ncc(F)c(Nc2cc(F)ccc2-c2nc(C(N)=O)c(N)c(-c3c(C)ccc4[nH]ncc34)n2)n1 [Compound 627]
pIC50 (2 h, 2 h compound incubation): 7.92

NC(=O)c1nc(-c2ccccc2Nc2ncccn2)nc(-c2c(Cl)ccc3[nH]ncc23)c1N [Compound 948]
pIC50 (2 h, 2 hours with compound): 7.36

Cc1ccc2[nH]ncc2c1-c1nc(-c2cccnc2N[C@H]2CC[C@H](O)C2)nc(C(N)=O)c1N [Compound 785]
pIC50 (2 h, 2 h compound incubation): 7.66

COc1cnnc(Nc2cc(F)ccc2-c2nc(C(N)=O)c(N)c(-c3c(C)ccc4[nH]ncc34)n2)c1 [Compound 566]
pIC50 (2 h, 2 h compound incubation): 7.12

Cc1ccc2[nH]ncc2c1-c1nc(-c2ccc(C#N)cc2Nc2ncccn2)nc(C(N)=O)c1N [Compound 645]
pIC50 (2 h, 2 h compound incubation): 7.92

Cc1ccc2[nH]ncc2c1-c1nc(-c2cc(F)cnc2N[C@@H]2C[C@H]3CC[C@@H]2O3)nc(C(N)=O)c1N [Compound 898]
pIC50 (2 hours with compound): 7.12

Cc1ccc2[nH]ncc2c1-c1nc(-c2ccccc2CO)nc(C(N)=O)c1N [Compound 779]
pIC50 (2 h, 2 h compound incubation): 6.31

NC(=O)c1nc(-c2ccc(Cl)nc2Nc2ncccc2F)nc(-c2c(F)ccc3[nH]ncc23)c1N [Compound 965]
pIC50 (2 h, 2 hours with compound): 8.10

Cc1ccc(F)c(Nc2ncccc2-c2nc(C(N)=O)c(N)c(-c3c(C)cc(F)c4[nH]ncc34)n2)n1 [Compound 773]
pIC50 (2 h, 2 h compound incubation): 8.22

Cc1ccc2[nH]ncc2c1-c1nc(-c2cc(F)ccc2NS(=O)(=O)C(F)F)nc(C(N)=O)c1N [Compound 493]
pIC50 (2 h, 2 h compound incubation): 6.17

Cc1ccc2[nH]ncc2c1-c1nc(-c2cccnc2NC[C@H]2CCO2)nc(C(N)=O)c1N [Compound 649]
pIC50 (2 h, 2 h compound incubation): < 5.00

Cc1ccnc(Nc2c(C)cccc2-c2nc(C(N)=O)c(N)c(-c3c(C)ccc4[nH]ncc34)n2)n1 [Compound 775]
pIC50 (2 h, 2 h compound incubation): 5.59

Cc1ccc(Cl)c(Nc2ncccc2-c2nc(C(N)=O)c(N)c(-c3c(C)ccc4[nH]ncc34)n2)n1 [Compound 716]
pIC50 (2 h, 2 h compound incubation): 7.89

Cc1ccc2[nH]ncc2c1-c1nc(-c2ccc(C#N)cc2Nc2cccnn2)nc(C(N)=O)c1N [Compound 765]
pIC50 (2 h, 2 h compound incubation): 7.64

NC(=O)c1nc(-c2ccc(F)nc2Nc2ncccn2)nc(-c2c(Cl)ccc3[nH]ncc23)c1N [Compound 923]
pIC50 (2 h, 2 hours with compound): 7.17

Cc1ccc2[nH]ncc2c1-c1nc(-c2ccc(C(F)(F)F)nc2Nc2nccnc2Cl)nc(C(N)=O)c1N [Compound 771]
pIC50 (2 h, 2 h compound incubation): 7.02

Cc1cc(F)c2[nH]ncc2c1-c1nc(-c2cc(F)ccc2Nc2ncc(F)cn2)nc(C(N)=O)c1N [Compound 677]
pIC50 (2 h, 2 h compound incubation): 6.35

Cc1ccc2[nH]ncc2c1-c1nc(-c2cccnc2N[C@H]2CCCOC2)nc(C(N)=O)c1N [Compound 546]
pIC50 (2 h, 2 h compound incubation): 7.92

Cc1ccc2[nH]ncc2c1-c1nc(-c2cc(F)cnc2N[C@@H]2COC[C@@H]2O)nc(C(N)=O)c1N [Compound 814]
pIC50 (2 h, 2 hours with compound): 7.15

Cc1ccc2[nH]ncc2c1-c1nc(-c2ccc(F)nc2Nc2nc(C(F)F)ccc2F)nc(C(N)=O)c1N [Compound 947]
pIC50 (2 h, 2 hours with compound): 8.40

Cc1ccc2[nH]ncc2c1-c1nc(-c2cccnc2Nc2ccccc2Cl)nc(C(N)=O)c1N [Compound 629]
pIC50 (2 h, 2 h compound incubation): 6.80

Cc1ccc2[nH]ncc2c1-c1nc(-c2cc(F)c(C#N)cc2NC(C)C(F)(F)F)nc(C(N)=O)c1N (stereo not drawn) [Compound 755]
pIC50 (2 h, 2 h compound incubation): 6.99

Cc1ccc2[nH]ncc2c1-c1nc(-c2cc(F)cnc2N[C@H]2CC[C@H](O)C2)nc(C(N)=O)c1N [Compound 812]
pIC50 (2 h, 2 hours with compound): 7.59

Cc1ccc2[nH]ncc2c1-c1nc(-c2cc(F)c(C#N)cc2Nc2ncccn2)nc(C(N)=O)c1N [Compound 761]
pIC50 (2 h, 2 h compound incubation): 7.12

Cc1ccc2[nH]ncc2c1-c1nc(-c2ncccc2NCC(F)(F)F)nc(C(N)=O)c1N [Compound 538]
pIC50 (2 h, 2 h compound incubation): 7.48

Cc1ccc2[nH]ncc2c1-c1nc(-c2cccnc2NC2CCN(C)C2=O)nc(C(N)=O)c1N (stereo not drawn) [Compound 561]
pIC50 (2 h, 2 h compound incubation): 6.37
